Assay results as given in PubChem BioAssay AID256 (DTP/NCI, 2004).
“And” between values parts separate entries of the source, which are not always exact repeats. Equal values may be shown once. Inconclusive results and toxic doses are left out. How the source made its calls: active means survival T/C of 150% or more; inactive means T/C below 125% in these data.

Tested on: CD2F1 mice, L1210 leukemia ip, survival T/C
Experiment: NCI In Vivo Anticancer Drug Screen. Data for tumor model L1210 Leukemia (intraperitoneal) in CD2F1 (CDF1) mice
Conditions: higher = longer survival
In short: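 Activity against a transplanted murine tumor was judged by comparing the compound group with a vehicle group. The outcome in the treated animals was divided by that in the controls.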

[1] = endpoint: mean survival time, dose: 50.0 mg/kg/injection, schedule: Q01DX009 (ip), vehicle: saline with Tween-80
[2] = endpoint: mean survival time, dose: 100.0 mg/kg/injection, schedule: Q01DX009 (ip), vehicle: saline with Tween-80
[3] = endpoint: mean survival time, dose: 200.0 mg/kg/injection, schedule: Q01DX009 (ip), vehicle: saline with Tween-80
[4] = endpoint: mean survival time, dose: 100.0 mg/kg/injection, schedule: Q04DX003 (ip), vehicle: saline with Tween-80
[5] = endpoint: mean survival time, dose: 200.0 mg/kg/injection, schedule: Q04DX003 (ip), vehicle: saline with Tween-80
[6] = endpoint: mean survival time, dose: 400.0 mg/kg/injection, schedule: Q04DX003 (ip), vehicle: saline with Tween-80
[7] = endpoint: mean survival time, dose: 100.0 mg/kg/injection, schedule: Q01DX001 (ip), vehicle: saline with Tween-80
[8] = endpoint: mean survival time, dose: 25.0 mg/kg/injection, schedule: Q01DX009 (ip), vehicle: saline with Tween-80
[9] = endpoint: mean survival time, dose: 100.0 mg/kg/injection, schedule: Q01DX001 (ip), vehicle: saline
[10] = endpoint: mean survival time, dose: 200.0 mg/kg/injection, schedule: Q01DX001 (ip), vehicle: saline
[11] = endpoint: mean survival time, dose: 400.0 mg/kg/injection, schedule: Q01DX001 (ip), vehicle: saline

Measured: T/C

Nc1cc2n[nH]nc2c(=O)[nH]1
inactive: endpoint: median survival time, dose: 50.0 mg/kg/injection, schedule: Q01DX005 (ip), vehicle: saline with Tween-80 107 % of control | endpoint: median survival time, dose: 100.0 mg/kg/injection, schedule: Q01DX005 (ip), vehicle: saline with Tween-80 101 % of control | endpoint: median survival time, dose: 200.0 mg/kg/injection, schedule: Q01DX005 (ip), vehicle: saline with Tween-80 100 % of control

CC(=O)C12CC3CC1C2C3
inactive: endpoint: mean survival time, dose: 75.0 mg/kg/injection, schedule: Q01DX001 (ip), vehicle: saline 101 % of control | endpoint: mean survival time, dose: 150.0 mg/kg/injection, schedule: Q01DX001 (ip), vehicle: saline 98 % of control | endpoint: mean survival time, dose: 300.0 mg/kg/injection, schedule: Q01DX001 (ip), vehicle: saline 93 % of control

O=C1NC(=O)C(Cc2ccccc2)C(=O)N1
inactive: [1] 92 % of control | [2] 96 % of control | [3] 96 % of control

COc1cccc(Cc2c[nH]c(=O)[nH]c2=O)c1
inactive: [4] 98 % of control | [5] 100 % of control | [6] 92 % of control

NC(CC(=O)CCl)C(=O)O (stereo unspecified)
inactive: endpoint: mean survival time, dose: 6.25 mg/kg/injection, schedule: Q04DX003 (ip), vehicle: saline 120 % of control | endpoint: mean survival time, dose: 37.5 mg/kg/injection, schedule: Q04DX003 (ip), vehicle: saline 109 % of control | endpoint: median survival time, dose: 10.0 mg/kg/injection, schedule: Q01DX001 (ip), vehicle: saline 121 % of control | endpoint: median survival time, dose: 20.0 mg/kg/injection, schedule: Q01DX001 (ip), vehicle: saline 121 % of control | endpoint: median survival time, dose: 30.0 mg/kg/injection, schedule: Q01DX009 (ip), vehicle: saline 122 % of control | endpoint: median survival time, dose: 40.0 mg/kg/injection, schedule: Q01DX001 (ip), vehicle: saline 122 % of control | endpoint: median survival time, dose: 60.0 mg/kg/injection, schedule: Q01DX009 (ip), vehicle: saline 35 % of control

O=C(O)Cc1cc(=O)oc2ccccc12
inactive: [7] 104 % of control | endpoint: mean survival time, dose: 200.0 mg/kg/injection, schedule: Q01DX001 (ip), vehicle: saline with Tween-80 104 % of control | endpoint: mean survival time, dose: 400.0 mg/kg/injection, schedule: Q01DX001 (ip), vehicle: saline with Tween-80 96 % of control

CCSC#N
inactive: endpoint: mean survival time, dose: 2.5 mg/kg/injection, schedule: Q01DX009 (ip), vehicle: Klucel (hydroxypropylcellulose) (HPC) 98 % of control | endpoint: mean survival time, dose: 5.0 mg/kg/injection, schedule: Q01DX009 (ip), vehicle: Klucel (hydroxypropylcellulose) (HPC) 102 % of control | endpoint: mean survival time, dose: 10.0 mg/kg/injection, schedule: Q01DX009 (ip), vehicle: Klucel (hydroxypropylcellulose) (HPC) 102 % of control

O=S(=O)([O-])O.O=S(O)S(=O)O.[Co+3].[NH2-].[NH2-].[NH2-].[NH2-].[NH2-]
inactive: endpoint: mean survival time, dose: 100.0 mg/kg/injection, schedule: Q04DX002 (ip), vehicle: saline with Tween-80 97 % of control

Clc1ccc2ccccc2c1C(Cl)Cl
inactive: [8] 96 % of control | [1] 95 % of control | [2] 98 % of control | [4] 91 % of control | [3] 102 % of control | [5] 98 % of control | endpoint: mean survival time, dose: 400.0 mg/kg/injection, schedule: Q01DX009 (ip), vehicle: saline with Tween-80 102 % of control | [6] 93 % of control

C#CCOC(=O)Nc1cccc2ccccc12
inactive: endpoint: mean survival time, dose: 100.0 mg/kg/injection, schedule: Q04DX003 (ip), vehicle: Klucel (hydroxypropylcellulose) (HPC) 100 % of control | endpoint: mean survival time, dose: 200.0 mg/kg/injection, schedule: Q04DX003 (ip), vehicle: Klucel (hydroxypropylcellulose) (HPC) 96 % of control | endpoint: mean survival time, dose: 400.0 mg/kg/injection, schedule: Q04DX003 (ip), vehicle: Klucel (hydroxypropylcellulose) (HPC) 94 % of control

CC1=NC2=Nc3cc[n+](C4OC(CO)C(O)C4O)c(=O)n3CC2=CN1C (stereo unspecified)
inactive: endpoint: median survival time, dose: 12.5 mg/kg/injection, schedule: Q01DX005 (ip), vehicle: water 107 % of control | endpoint: median survival time, dose: 25.0 mg/kg/injection, schedule: Q01DX005 (ip), vehicle: water 105 % of control | endpoint: median survival time, dose: 50.0 mg/kg/injection, schedule: Q01DX005 (ip), vehicle: water 105 % of control | endpoint: median survival time, dose: 100.0 mg/kg/injection, schedule: Q01DX005 (ip), vehicle: water 105 % of control and 107 % of control | endpoint: median survival time, dose: 200.0 mg/kg/injection, schedule: Q01DX005 (ip), vehicle: water 103 % of control and 105 % of control | endpoint: median survival time, dose: 400.0 mg/kg/injection, schedule: Q01DX005 (ip), vehicle: water 104 % of control

CCCCCCCCC(CCCCCC)CCCCCCCC
inactive: [9] 96 % of control | [10] 96 % of control | [11] 97 % of control

O=C(Nc1nc(-c2ccccc2)cs1)Nc1cccc(Cl)c1Cl
inactive: [1] 101 % of control | [2] 90 % of control | [3] 97 % of control

O=[N+]([O-])c1ccc(Cc2ncnc3c2ncn3C2OC(CO)C(O)C2O)cc1 (stereo unspecified)
inactive: endpoint: mean survival time, dose: 12.5 mg/kg/injection, schedule: Q01DX005 (ip), vehicle: distilled water + Tween-80 103 % of control | endpoint: mean survival time, dose: 25.0 mg/kg/injection, schedule: Q01DX005 (ip), vehicle: distilled water + Tween-80 105 % of control | endpoint: mean survival time, dose: 50.0 mg/kg/injection, schedule: Q01DX005 (ip), vehicle: distilled water + Tween-80 108 % of control | endpoint: mean survival time, dose: 100.0 mg/kg/injection, schedule: Q01DX005 (ip), vehicle: distilled water + Tween-80 120 % of control | endpoint: mean survival time, dose: 200.0 mg/kg/injection, schedule: Q01DX005 (ip), vehicle: distilled water + Tween-80 120 % of control

CN(C)CCCN=Cc1ccccc1O.CN(C)CCCN=Cc1ccccc1O.[Ni+2]
inactive: endpoint: mean survival time, dose: 6.25 mg/kg/injection, schedule: Q01DX009 (ip), vehicle: saline with Tween-80 100 % of control | endpoint: mean survival time, dose: 12.5 mg/kg/injection, schedule: Q01DX009 (ip), vehicle: saline with Tween-80 101 % of control | [8] 89 % of control

O=C1C=C(Nc2nc(O)cc(=O)[nH]2)c2ccccc2C1=O
inactive: endpoint: mean survival time, dose: 100.0 mg/kg/injection, schedule: Q01DX009 (ip), vehicle: Klucel (hydroxypropylcellulose) (HPC) 97 % of control

CCC[As](=O)(O)CC[As](=O)(O)CCC
inactive: endpoint: mean survival time, dose: 25.0 mg/kg/injection, schedule: Q01DX001 (ip), vehicle: saline with Tween-80 95 % of control | endpoint: mean survival time, dose: 50.0 mg/kg/injection, schedule: Q01DX001 (ip), vehicle: saline with Tween-80 95 % of control | [7] 103 % of control

CC(NC(=O)CNC(=O)OCc1ccccc1)C(=O)O (stereo unspecified)
inactive: [4] 98 % of control | [5] 96 % of control | [6] 93 % of control

O=[N+]([O-])c1ccc(F)cc1
inactive: endpoint: mean survival time, dose: 10.0 mg/kg/injection, schedule: Q04DX003 (ip), vehicle: saline 104 % of control | endpoint: mean survival time, dose: 20.0 mg/kg/injection, schedule: Q04DX003 (ip), vehicle: saline 102 % of control | endpoint: mean survival time, dose: 40.0 mg/kg/injection, schedule: Q04DX003 (ip), vehicle: saline 102 % of control

O=C1OCC2(C(=O)O)C(=O)OCC12 (stereo unspecified)
inactive: endpoint: mean survival time, dose: 50.0 mg/kg/injection, schedule: Q01DX001 (ip), vehicle: saline 97 % of control | [9] 106 % of control | [10] 106 % of control | [11] 101 % of control

O=C(O)C(C(=O)O)=C(C(=O)c1ccccc1)c1ccccc1
inactive: endpoint: mean survival time, dose: 100.0 mg/kg/injection, schedule: Q01DX009 (ip), vehicle: other 95 % of control | endpoint: mean survival time, dose: 200.0 mg/kg/injection, schedule: Q01DX009 (ip), vehicle: other 100 % of control | endpoint: mean survival time, dose: 400.0 mg/kg/injection, schedule: Q01DX009 (ip), vehicle: other 95 % of control

Cc1[nH]c(C(=O)NN)c(C)c1C(=O)NN
inactive: [8] 111 % of control | [1] 100 % of control | [2] 103 % of control | [4] 98 % of control

Cc1ccc([N+](=O)[O-])cc1C#N
inactive: [4] 105 % of control | [5] 105 % of control | [6] 113 % of control
